Assay results as given in patent US8546579B2, “Bicycloheteroaryl compounds as P2X7 modulators and uses thereof” (Evotec (US) Inc., priority 2006, dated 2013).

Target: T1, P2X7 receptor (Homo sapiens, UniProt Q99572)
T1 construct: host or cells: THP-1 cells differentiated with LPS and IFN-γ
T1 sequence (Q99572 1-595): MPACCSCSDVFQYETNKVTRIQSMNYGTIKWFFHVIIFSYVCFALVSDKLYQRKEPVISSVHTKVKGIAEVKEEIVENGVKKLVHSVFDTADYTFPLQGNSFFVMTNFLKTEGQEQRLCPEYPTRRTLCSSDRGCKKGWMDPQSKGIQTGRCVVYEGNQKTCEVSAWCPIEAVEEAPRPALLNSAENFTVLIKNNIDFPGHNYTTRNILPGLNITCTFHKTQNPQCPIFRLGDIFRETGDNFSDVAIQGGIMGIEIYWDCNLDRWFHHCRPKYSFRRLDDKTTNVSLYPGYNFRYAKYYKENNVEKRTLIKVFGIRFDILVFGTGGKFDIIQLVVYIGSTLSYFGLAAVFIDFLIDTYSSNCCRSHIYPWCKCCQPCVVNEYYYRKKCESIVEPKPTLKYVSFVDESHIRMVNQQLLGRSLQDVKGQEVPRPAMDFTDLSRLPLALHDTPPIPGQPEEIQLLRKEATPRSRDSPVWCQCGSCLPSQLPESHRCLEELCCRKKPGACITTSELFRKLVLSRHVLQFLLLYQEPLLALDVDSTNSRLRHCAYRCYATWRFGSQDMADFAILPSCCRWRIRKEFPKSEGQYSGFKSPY
Experiment: IL-1β release assay in differentiated THP-1 cells stimulated with BzATP (Example 9)
Type: cell-based
Settings: 0.1 μM compound; differentiated THP-1 cells, BzATP 250 uM; symbols * to ****; read-out: IL-1β % Inhib. (asterisk symbols: at 0.1 μM)
Outline: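 IC50 derived by four-parameter logistic fit of percent inhibition of IL-1β release, measured by ELISA after 45 min stimulation with 250 uM BzATP. Cells: THP-1 differentiated 16 h with 100 ng/mL LPS plus IFN-γ, LPS-primed 2 h, compound added 30 min beforehand.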

inhibition at 0.1 µM [%] | SMILES
0 to 25 | COc1cc(OC)cc(C(=O)Nc2cccc3c(=O)n(CC(C)(C)C)ccc23)c1 [Compound 1245]
0 to 25 | Cc1cccc(C(=O)Nc2cccc3c(=O)n(CC(C)(C)C)ccc23)c1 [Compound 1246]
0 to 25 | CC(C(=O)Nc1cccc2c(=O)n(CC(C)(C)C)ccc12)c1ccccc1 (centres unmarked) [Compound 1247]

Same assay, conditions: 0.3 μM compound; differentiated THP-1 cells, BzATP 250 uM; symbols + to ++++; read-out: IL-1β % Inhib. @ 0.3 μM

inhibition at 0.3 µM [%] | SMILES
0 to 25 | COc1ccc(CC(=O)Nc2cccc3c(=O)n(CCN4CCOCC4)ccc23)cc1 [Compound 1212]
0 to 25 | CCOc1ccc(CC(=O)Nc2cccc3c(=O)n(CCN4CCOCC4)ccc23)cc1 [Compound 1213]
0 to 25 | Cc1ccc(CC(=O)Nc2cccc3c(=O)n(CCN4CCOCC4)ccc23)cc1 [Compound 1214]
26 to 50 | COc1cc(CC(=O)Nc2cccc3c(=O)n(CCN4CCOCC4)ccc23)cc(OC)c1 [Compound 1218]
0 to 25 | Cc1cc(Cl)ccc1C(=O)Nc1cccc2c(=O)n(CCN3CCOCC3)ccc12 [Compound 1221]
0 to 25 | O=C(CC1CC2CC[C@H]1C2)Nc1cccc2c(=O)n(CCN3CCOCC3)ccc12 (some centres unmarked) [Compound 1222]
0 to 25 | O=C(Nc1cccc2c(=O)n(CCN3CCOCC3)ccc12)c1cccc2c1OCCO2 [Compound 1224]
0 to 25 | O=C(Cc1csc2ccccc12)Nc1cccc2c(=O)n(CCN3CCOCC3)ccc12 [Compound 1226]
0 to 25 | Cc1c(Cl)cccc1C(=O)Nc1cccc2c(=O)n(CCN3CCOCC3)ccc12 [Compound 1227]
0 to 25 | COc1ccc(CC(=O)Nc2cccc3c(=O)n(CCN4CCOCC4)ccc23)c(OC)c1 [Compound 1230]
0 to 25 | O=C(CCc1ccc(Cl)cc1)Nc1cccc2c(=O)n(CCN3CCOCC3)ccc12 [Compound 1232]
0 to 25 | COc1ccc(CC(=O)Nc2cccc3c(=O)n(CCN4CCOCC4)ccc23)cc1C [Compound 1234]
0 to 25 | Cc1cccc(C(=O)Nc2cccc3c(=O)n(CCN4CCOCC4)ccc23)c1Cl [Compound 1239]
26 to 50 | COc1ccc(C(=O)Nc2cccc3c(=O)n(CCN4CCOCC4)ccc23)cc1C [Compound 1240]
0 to 25 | Cc1ccc(CCC(=O)Nc2cccc3c(=O)n(CCN4CCOCC4)ccc23)c(C)c1 [Compound 1241]
0 to 25 | CC(C)(C)Cn1ccc2c(NC(=O)c3ccccc3Cl)cccc2c1=O [Compound 1244]
0 to 25 | CC(C)(C)Cn1ccc2c(NC(=O)Cc3ccccc3F)cccc2c1=O [Compound 1252]
0 to 25 | COc1ccccc1CC(=O)Nc1cccc2c(=O)n(CC(C)(C)C)ccc12 [Compound 1254]
0 to 25 | COc1ccc(CC(=O)Nc2cccc3c(=O)n(CC(C)(C)C)ccc23)cc1OC [Compound 1258]
0 to 25 | CCOc1ccc(CC(=O)Nc2cccc3c(=O)n(CC(C)(C)C)ccc23)cc1 [Compound 1261]
0 to 25 | CC(C)(C)Cn1ccc2c(NC(=O)c3cccc4c3OCCO4)cccc2c1=O [Compound 1272]
0 to 25 | Cc1c(Cl)cccc1C(=O)Nc1cccc2c(=O)n(CC(C)(C)C)ccc12 [Compound 1275]
0 to 25 | Cc1cc(C)cc(CC(=O)Nc2cccc3c(=O)n(CC(C)(C)C)ccc23)c1 [Compound 1276]

The remaining lines, values behind:

SMILES | inhibition at 0.3 µM [%]
COc1cccc(CC(=O)Nc2cccc3c(=O)n(CCN4CCOCC4)ccc23)c1 [Compound 1209] | 0 to 25
COc1ccc(CC(=O)Nc2cccc3c(=O)n(CCN4CCOCC4)ccc23)cc1OC [Compound 1210] | 0 to 25
Cc1cccc(CC(=O)Nc2cccc3c(=O)n(CCN4CCOCC4)ccc23)c1 [Compound 1211] | 0 to 25
O=C(CCCc1ccccc1)Nc1cccc2c(=O)n(CCN3CCOCC3)ccc12 [Compound 1215] | 0 to 25
O=C(Nc1cccc2c(=O)n(CCN3CCOCC3)ccc12)c1cc2ccccc2o1 [Compound 1216] | 0 to 25
O=C(Cc1ccc2c(c1)OCO2)Nc1cccc2c(=O)n(CCN3CCOCC3)ccc12 [Compound 1217] | 0 to 25
COc1c(C)cc(C(=O)Nc2cccc3c(=O)n(CCN4CCOCC4)ccc23)cc1C [Compound 1219] | 26 to 50
Cc1ccc(C(=O)Nc2cccc3c(=O)n(CCN4CCOCC4)ccc23)cc1Cl [Compound 1220] | 0 to 25
O=C(Nc1cccc2c(=O)n(CCN3CCOCC3)ccc12)[C@@]12C[C@@H]3C[C@@H](C[C@@H]1C3)C2 [Compound 1223] | 0 to 25
O=C(Nc1cccc2c(=O)n(CCN3CCOCC3)ccc12)c1ccc2c(c1)OCCCO2 [Compound 1225] | 0 to 25
Cc1cc(C)cc(CC(=O)Nc2cccc3c(=O)n(CCN4CCOCC4)ccc23)c1 [Compound 1228] | 0 to 25
Cc1cc(C(=O)Nc2cccc3c(=O)n(CCN4CCOCC4)ccc23)ccc1F [Compound 1231] | 0 to 25
CCOc1ccccc1CC(=O)Nc1cccc2c(=O)n(CCN3CCOCC3)ccc12 [Compound 1233] | 0 to 25
Cc1ccc(Cl)c(C(=O)Nc2cccc3c(=O)n(CCN4CCOCC4)ccc23)c1 [Compound 1235] | 0 to 25
Cc1ccc(Cl)cc1C(=O)Nc1cccc2c(=O)n(CCN3CCOCC3)ccc12 [Compound 1236] | 0 to 25
Cc1cccc(CCC(=O)Nc2cccc3c(=O)n(CCN4CCOCC4)ccc23)c1 [Compound 1237] | 26 to 50
O=C(Nc1cccc2c(=O)n(CCN3CCOCC3)ccc12)c1cc2cc(Cl)ccc2o1 [Compound 1238] | 26 to 50
O=C(CCc1cccc(Cl)c1)Nc1cccc2c(=O)n(CCN3CCOCC3)ccc12 [Compound 1242] | 26 to 50
CC(C)Cc1ccc(C(=O)Nc2cccc3c(=O)n(CCN4CCOCC4)ccc23)cc1 [Compound 1243] | 0 to 25
COc1ccccc1CCC(=O)Nc1cccc2c(=O)n(CC(C)(C)C)ccc12 [Compound 1248] | 0 to 25
CC(C)(C)Cn1ccc2c(NC(=O)c3cccc4ccccc34)cccc2c1=O [Compound 1249] | 0 to 25

SMILES | inhibition at 0.3 µM [%]
CC(C)(C)Cn1ccc2c(NC(=O)Cc3cccc4ccccc34)cccc2c1=O [Compound 1250] | 0 to 25
CC(C)(C)Cn1ccc2c(NC(=O)c3ccc4ccccc4c3)cccc2c1=O [Compound 1251] | 0 to 25
CC(C)(C)Cn1ccc2c(NC(=O)Cc3ccccc3Cl)cccc2c1=O [Compound 1253] | 0 to 25
Cc1ccccc1CC(=O)Nc1cccc2c(=O)n(CC(C)(C)C)ccc12 [Compound 1256] | 0 to 25
COc1cccc(CC(=O)Nc2cccc3c(=O)n(CC(C)(C)C)ccc23)c1 [Compound 1257] | 0 to 25
Cc1cccc(CC(=O)Nc2cccc3c(=O)n(CC(C)(C)C)ccc23)c1 [Compound 1259] | 0 to 25
COc1ccc(CC(=O)Nc2cccc3c(=O)n(CC(C)(C)C)ccc23)cc1 [Compound 1260] | 0 to 25
Cc1ccc(CC(=O)Nc2cccc3c(=O)n(CC(C)(C)C)ccc23)cc1 [Compound 1262] | 0 to 25
CC(C)(C)Cn1ccc2c(NC(=O)CCCc3ccccc3)cccc2c1=O [Compound 1263] | 0 to 25
CC(C)(C)Cn1ccc2c(NC(=O)c3cc4ccccc4o3)cccc2c1=O [Compound 1264] | 0 to 25
CC(C)(C)Cn1ccc2c(NC(=O)Cc3ccc4c(c3)OCO4)cccc2c1=O [Compound 1265] | 26 to 50
COc1cc(CC(=O)Nc2cccc3c(=O)n(CC(C)(C)C)ccc23)cc(OC)c1 [Compound 1266] | 0 to 25
COc1c(C)cc(C(=O)Nc2cccc3c(=O)n(CC(C)(C)C)ccc23)cc1C [Compound 1267] | 0 to 25
Cc1ccc(C(=O)Nc2cccc3c(=O)n(CC(C)(C)C)ccc23)cc1Cl [Compound 1268] | 0 to 25
Cc1cc(Cl)ccc1C(=O)Nc1cccc2c(=O)n(CC(C)(C)C)ccc12 [Compound 1269] | 0 to 25
CC(C)(C)Cn1ccc2c(NC(=O)CC3CC4CC[C@H]3C4)cccc2c1=O (some centres unmarked) [Compound 1270] | 0 to 25
CC(C)(C)Cn1ccc2c(NC(=O)[C@@]34C[C@@H]5C[C@@H](C[C@@H]3C5)C4)cccc2c1=O [Compound 1271] | 0 to 25
CC(C)(C)Cn1ccc2c(NC(=O)c3ccc4c(c3)OCCCO4)cccc2c1=O [Compound 1273] | 0 to 25
CC(C)(C)Cn1ccc2c(NC(=O)Cc3csc4ccccc34)cccc2c1=O [Compound 1274] | 0 to 25
CC(C)(C)Cn1ccc2c(NC(=O)C3C[C@@H]4CC[C@H]3C4)cccc2c1=O (some centres unmarked) [Compound 1277] | ≥ 76
COc1ccc(CC(=O)Nc2cccc3c(=O)n(CC(C)(C)C)ccc23)c(OC)c1 [Compound 1278] | 0 to 25
